What was measured:
MCF7 = assay: Cytotoxicity against human MCF7 cells assessed as reduction in cell viability incubated for 72 hrs by MTT assay; type: functional, cell-based; settings: MCF7, 72 h
MRC5 = assay: Cytotoxicity against human MRC5 cells assessed as reduction in cell viability incubated for 72 hrs by MTT assay; settings: MRC5, 72 h
[1] = Selectivity index, ratio of IC50 for human MRC5 cells to IC50 for human MCF7 cells; type: toxicity; settings: MRC5 cells versus MCF7 cells, read-out: Ratio IC50
A2780 = assay: Cytotoxicity against human A2780 cells assessed as reduction in cell viability incubated for 72 hrs by MTT assay; settings: A2780, 72 h
HT-29 = assay: Cytotoxicity against human HT29 cells assessed as reduction in cell viability incubated for 72 hrs by MTT assay; settings: HT-29, 72 h
[2] = Selectivity index, ratio of IC50 for human MRC5 cells to IC50 for human A2780 cells; type: toxicity; settings: MRC5 cells versus A2780 cells, read-out: Ratio IC50
[3] = Selectivity index, ratio of IC50 for human MRC5 cells to IC50 for human HT29 cells; type: toxicity; settings: MRC5 cells versus HT29 cells, read-out: Ratio IC50
NCI/ADR-RES [4] = assay: Synergistic cytotoxicity against human MCF7/ADR cells assessed as combination index at 0.25 uM after 72 hrs in presence of 1 uM doxorubicin by MTT assay; type: functional
NCI/ADR-RES [5] = assay: Cytotoxicity against human MCF7/ADR cells assessed as reduction in cell viability incubated for 72 hrs by MTT assay
NCI/ADR-RES [6] = assay: Synergistic cytotoxicity against human MCF7/ADR cells assessed as combination index at 0.5 uM after 72 hrs in presence of 0.25 uM doxorubicin by MTT assay; type: functional
NCI/ADR-RES [7] = assay: Synergistic cytotoxicity against human MCF7/ADR cells assessed as combination index at 1 uM after 72 hrs in presence of 1 uM doxorubicin by MTT assay; type: functional
NCI/ADR-RES [8] = assay: Cytotoxicity against human MCF7/ADR cells assessed as reduction in cell viability incubated for 72 hrs in presence of doxorubicin by MTT assay; type: functional, cell-based
NCI/ADR-RES [9] = assay: Synergistic cytotoxicity against human MCF7/ADR cells assessed as combination index at 0.25 uM after 72 hrs in presence of 0.25 uM doxorubicin by MTT assay; type: functional
NCI/ADR-RES [10] = assay: Synergistic cytotoxicity against human MCF7/ADR cells assessed as combination index at 1 uM after 72 hrs in presence of 0.25 uM doxorubicin by MTT assay; type: functional
NCI/ADR-RES [11] = assay: Synergistic cytotoxicity against human MCF7/ADR cells assessed as combination index at 0.5 uM after 72 hrs in presence of 1 uM doxorubicin by MTT assay; type: functional
NCI/ADR-RES [12] = assay: Synergistic cytotoxicity against human MCF7/ADR cells assessed as combination index at 1 uM after 72 hrs in presence of 0.5 uM doxorubicin by MTT assay; type: functional
NCI/ADR-RES [13] = assay: Synergistic cytotoxicity against human MCF7/ADR cells assessed as combination index at 0.25 uM after 72 hrs in presence of 0.5 uM doxorubicin by MTT assay; type: functional
NCI/ADR-RES [14] = assay: Synergistic cytotoxicity against human MCF7/ADR cells assessed as combination index at 0.5 uM after 72 hrs in presence of 0.5 uM doxorubicin by MTT assay; type: functional
[15] = Reversal of multidrug resistant activity in human MCF7/ADR cells assessed as reversal fold after 72 hrs by MTT assay; type: functional, NCI/ADR-RES
P-gp (ABCB1) [16] = biological target: T1, P-gp (ABCB1) (Homo sapiens, UniProt P08183); assay: Inhibition of P-gp activity in human MCF7/ADR cells at 500 nM after 72 hrs by RT-PCR analysis relative to control; type: cell-based, NCI/ADR-RES; settings: MCF7/ADR cells
P-gp (ABCB1) [17] = biological target: T1, P-gp (ABCB1); assay: Inhibition of P-gp activity in human MCF7/ADR cells at 250 nM after 72 hrs by RT-PCR analysis relative to control; type: cell-based, NCI/ADR-RES; settings: MCF7/ADR cells
P-gp (ABCB1) [18] = biological target: T1, P-gp (ABCB1); assay: Inhibition of P-gp activity in human MCF7/ADR cells at 125 nM after 72 hrs by RT-PCR analysis relative to control; type: cell-based, NCI/ADR-RES
P-gp (ABCB1) [19] = biological target: T1, P-gp (ABCB1); assay: Inhibition of P-gp activity in human MCF7/ADR cells at 1000 nM after 72 hrs by RT-PCR analysis relative to control; type: cell-based, NCI/ADR-RES; settings: MCF7/ADR cells
[20] = biological target: ATP-dependent translocase ABCB1 (Homo sapiens, UniProt P08183); assay: Inhibition of P-gp activity in human MCF7/ADR cells after 72 hrs by RT-PCR analysis; type: cell-based; settings: nci/adr-res, at 125 to 1000 nM, dose 125-1000 nM
ATP-dependent translocase ABCB1, sequence (P08183 whole entry): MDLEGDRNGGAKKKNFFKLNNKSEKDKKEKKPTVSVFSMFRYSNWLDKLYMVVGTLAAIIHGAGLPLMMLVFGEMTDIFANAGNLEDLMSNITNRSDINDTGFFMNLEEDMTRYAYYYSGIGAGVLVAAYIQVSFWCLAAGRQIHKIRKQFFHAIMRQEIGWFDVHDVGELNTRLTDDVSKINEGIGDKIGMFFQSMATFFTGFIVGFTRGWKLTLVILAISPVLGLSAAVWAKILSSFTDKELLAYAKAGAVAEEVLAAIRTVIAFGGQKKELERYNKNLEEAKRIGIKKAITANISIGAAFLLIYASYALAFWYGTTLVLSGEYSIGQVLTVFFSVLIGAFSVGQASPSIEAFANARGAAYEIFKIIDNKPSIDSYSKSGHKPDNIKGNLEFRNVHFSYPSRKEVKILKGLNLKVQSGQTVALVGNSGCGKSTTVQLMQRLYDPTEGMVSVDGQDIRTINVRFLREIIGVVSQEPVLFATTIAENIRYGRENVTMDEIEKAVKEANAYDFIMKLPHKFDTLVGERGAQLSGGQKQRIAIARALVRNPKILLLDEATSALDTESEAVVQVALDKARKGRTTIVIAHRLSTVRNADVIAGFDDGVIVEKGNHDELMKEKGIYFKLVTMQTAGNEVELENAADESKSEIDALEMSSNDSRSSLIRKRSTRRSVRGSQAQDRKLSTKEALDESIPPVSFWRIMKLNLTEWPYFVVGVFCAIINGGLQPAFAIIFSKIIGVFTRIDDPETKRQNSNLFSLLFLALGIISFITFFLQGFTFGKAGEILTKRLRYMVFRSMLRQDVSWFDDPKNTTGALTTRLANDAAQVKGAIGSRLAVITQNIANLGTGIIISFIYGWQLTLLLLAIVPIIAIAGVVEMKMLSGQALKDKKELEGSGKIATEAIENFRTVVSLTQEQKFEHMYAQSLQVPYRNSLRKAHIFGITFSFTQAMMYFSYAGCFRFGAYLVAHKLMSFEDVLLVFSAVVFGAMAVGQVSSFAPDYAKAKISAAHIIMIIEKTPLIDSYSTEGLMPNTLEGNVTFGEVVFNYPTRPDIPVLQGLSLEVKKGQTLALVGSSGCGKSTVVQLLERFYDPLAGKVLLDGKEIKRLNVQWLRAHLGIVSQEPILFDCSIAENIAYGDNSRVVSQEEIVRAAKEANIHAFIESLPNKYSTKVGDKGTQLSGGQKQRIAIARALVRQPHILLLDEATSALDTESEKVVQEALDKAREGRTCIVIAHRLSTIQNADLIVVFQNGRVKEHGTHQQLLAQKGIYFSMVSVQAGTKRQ

T1 sequence (P08183 whole entry): as above

SMILES | IC50 (MCF7) | IC50 (MRC5) | selectivity ratio [1] | IC50 (A2780) | IC50 (HT-29) | selectivity ratio [2] | selectivity ratio [3] | other results
N#Cc1c2c(n3c1CCC3)C(=O)N(c1ccc(F)cc1)CC(=O)N2 | 190 nM | 1.46 µM | 7.68 | 970 nM | 9710 nM | 1.51 | 0.15 | 
N#Cc1c2n(c3c(=O)n(-c4ccc(Cl)cc4)cnc13)CCCC2 | 250 nM | 0.3 µM | 1.2 | 70 nM | 420 nM | 4.29 | 0.71 | CI (NCI/ADR-RES [4]): 0.19; IC50 (NCI/ADR-RES [5]): 37.3 µM; CI (NCI/ADR-RES [6]): >100; CI (NCI/ADR-RES [7]): 0.21; IC50 (NCI/ADR-RES [8]): 6.33 µM; CI (NCI/ADR-RES [9]): >100; CI (NCI/ADR-RES [10]): >100; CI (NCI/ADR-RES [11]): 0.9; CI (NCI/ADR-RES [12]): >100; CI (NCI/ADR-RES [13]): >100; CI (NCI/ADR-RES [14]): >100; fold change (FC) [15]: 2.88
COc1ccc(-n2c(=O)[nH]c3c(C#N)c4n(c3c2=O)CCC4)cc1 | 19600 nM | 13.8 µM | 0.71 | 15600 nM | 420 nM | 0.88 | 33 | 
O=C(Nc1ccc(F)cc1)c1c2nc[nH]c(=O)c2c2n1CCC2 | 740 nM | 0.17 µM | 0.23 | 580 nM | 1020 nM | 0.29 | 0.17 | 
Cc1nc2c(C#N)c3n(c2c(=O)n1-c1ccc(Cl)cc1)CCCC3 | 10800 nM | 1.54 µM | 0.14 | 630 nM | 10500 nM | 2.44 | 0.15 | 
Cc1nc2c(C#N)c3n(c2c(=O)n1-c1ccc(F)cc1)CCC3 | 170 nM | 2.78 µM | 16.4 | 150 nM | 780 nM | 18.5 | 3.56 | CI (NCI/ADR-RES [4]): 0.89; IC50 (NCI/ADR-RES [5]): 46.9 µM; CI (NCI/ADR-RES [6]): >100; CI (NCI/ADR-RES [7]): 0.1; IC50 (NCI/ADR-RES [8]): 6.12 µM; CI (NCI/ADR-RES [9]): >100; CI (NCI/ADR-RES [10]): >100; CI (NCI/ADR-RES [11]): 0.2; CI (NCI/ADR-RES [12]): 9.602; CI (NCI/ADR-RES [13]): >100; CI (NCI/ADR-RES [14]): >100; fold change (FC) [15]: 2.98
N#Cc1c2n(c3c(=O)n(-c4ccc(F)cc4)cnc13)CCC2 | 650 nM | 11.2 µM | 17.3 | 720 nM | 480 nM | 15.6 | 23.4 | CI (NCI/ADR-RES [4]): 0.6; IC50 (NCI/ADR-RES [5]): 10.3 µM; inhibition at 72 h, 0.5 µM (P-gp (ABCB1) [16]): 91%; CI (NCI/ADR-RES [6]): >100; inhibition at 72 h, 0.25 µM (P-gp (ABCB1) [17]): 65%; CI (NCI/ADR-RES [7]): 0.1; IC50 (NCI/ADR-RES [8]): 2.21 µM; CI (NCI/ADR-RES [9]): >100; CI (NCI/ADR-RES [10]): >100; inhibition at 72 h, 0.125 µM (P-gp (ABCB1) [18]): 9%; CI (NCI/ADR-RES [11]): 0.12; CI (NCI/ADR-RES [12]): 2.647; CI (NCI/ADR-RES [13]): 14.6; inhibition at 72 h, 1 µM (P-gp (ABCB1) [19]): 92%; inhibition (INH) [20]: Dose-Dependent Effect; CI (NCI/ADR-RES [14]): 1.089; fold change (FC) [15]: 8.24
COc1ccc(N2CC(=O)Nc3c(C#N)c4n(c3C2=O)CCC4)cc1 | 2830 nM | 9.57 µM | 3.38 | 6280 nM | 200 nM | 1.52 | 47.9 | 
COc1ccc(NC(=O)c2c3nc[nH]c(=O)c3c3n2CCC3)cc1 | 1430 nM | 1.53 µM | 1.07 | 15600 nM | 140 nM | 0.1 | 10.9 | 
Cc1nc2c(C#N)c3n(c2c(=O)n1-c1ccccc1)CCCC3 | 1790 nM | 7.58 µM | 4.23 | 50 nM | 880 nM | 152 | 8.61 | 
COc1ccc(-n2c(C)nc3c(C#N)c4n(c3c2=O)CCC4)cc1 | 80 nM | 17.3 µM | 216 | 70 nM | 160 nM | 247 | 108 | CI (NCI/ADR-RES [4]): 0.19; IC50 (NCI/ADR-RES [5]): 30.5 µM; CI (NCI/ADR-RES [6]): 37.214; CI (NCI/ADR-RES [7]): 0.3; IC50 (NCI/ADR-RES [8]): 7.58 µM; CI (NCI/ADR-RES [9]): >100; CI (NCI/ADR-RES [10]): >100; CI (NCI/ADR-RES [11]): 0.2; CI (NCI/ADR-RES [12]): 5.646; CI (NCI/ADR-RES [13]): 11.363; CI (NCI/ADR-RES [14]): 2.952; fold change (FC) [15]: 2.4
N#Cc1c2n(c3c(=O)n(-c4ccc(F)cc4)c(=O)[nH]c13)CCC2 | 880 nM | 0.24 µM | 0.27 | 730 nM | 4380 nM | 0.33 | 0.05 | 
Cc1nc2c(C#N)c3n(c2c(=O)n1-c1ccc(Br)cc1)CCCC3 | 1650 nM | 3.71 µM | 2.25 | 160 nM | 10800 nM | 23.2 | 0.35 | 
COc1ccc(-n2cnc3c(C#N)c4n(c3c2=O)CCC4)cc1 | 2610 nM | 20.6 µM | 7.88 | 1360 nM | 11000 nM | 15.1 | 1.88 | 
